Data from ChEMBL document CHEMBL1201862, “PubChem BioAssay data set” (2004).
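Exposure lasted 48 hours, with cells grown in 96-well plates and compounds tested at five concentrations. GI50 = concentration required for 50% inhibition of growth.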 Activity calls are given as the source filed them. Cut-off read from the data, not from the text of the source: active = GI50 up to about 1.1 µM and inactive = higher.

How the values were obtained:
Assay in all cases: inhibition of tumour cell growth, NCI panel, 48 h
[1] = system: HCC 2998
[2] = system: SK-OV-3
[3] = system: RXF 393
[4] = system: SK-MEL-5
[5] = system: HOP-62
[6] = system: A498
[7] = system: MOLT-4
[8] = system: UO-31
[9] = system: HOP-92
[10] = system: M14
[11] = system: SN12C
[12] = system: Malme-3M
[13] = system: K562
[14] = system: HCT-116
[15] = system: COLO 205
[16] = system: LOX IMVI
[17] = system: OVCAR-5
[18] = system: CAKI-1
[19] = system: NCI-H226
[20] = system: MDA-MB-435

Q: Which results are given for `CN(C)CCNc1ccc2nnn3c4ccc(O)cc4c(=O)c1c23`?
A: GI50 [1]: 5.48 µM (inactive); GI50 [2]: 3.72 µM (inactive); GI50 [3]: 1.68 µM (inactive); GI50 [4]: 2.53 µM (inactive); GI50 [5]: 1.39 µM (inactive); GI50 [6]: 3.71 µM (inactive); GI50 [7]: 0.168 µM (active); GI50 [8]: 2.22 µM (inactive); GI50 [9]: 4.59 µM (inactive); GI50 [10]: 7.59 µM (inactive); GI50 [11]: 1.85 µM (inactive); GI50 [12]: 5.05 µM (inactive); GI50 [13]: 1.61 µM (inactive); GI50 [14]: 1.35 µM (inactive); GI50 [15]: 3.39 µM (inactive); GI50 [16]: 1.5 µM (inactive); GI50 [17]: 4.41 µM (inactive); GI50 [18]: 3.13 µM (inactive); GI50 [19]: 6.31 µM (inactive); GI50 [20]: 4.07 µM (inactive)

Q: For `CC(C)=CCC[C@](C)(O)[C@H]1CC[C@]2(C)[C@@H]1[C@H](O)C[C@@H]1[C@@]3(C)CC[C@H](O[C@@H]4O[C@H](CO)[C@@H](O)[C@H](O)[C@H]4O)C(C)(C)[C@@H]3CC[C@]12C` [GINSENOSIDE RH2], which GI50 [1] is on record?
A: Its GI50 is 27.9 µM (inactive).

Q: And the GI50 [2]?
A: Its GI50 is 18.5 µM (inactive).

Q: And the GI50 [3]?
A: Its GI50 is 17 µM (inactive).

Q: And the GI50 [4]?
A: The GI50 was 18.1 µM (inactive).

Q: What about the GI50 [5] of the same compound?
A: The GI50 was 32.6 µM (inactive).

Q: What about the GI50 [6] of the same compound?
A: The GI50 was 19.8 µM (inactive).

Q: What about the GI50 [7] of the same compound?
A: Its GI50 is 17.1 µM (inactive).

Q: And the GI50 [8]?
A: Its GI50 is 17.4 µM (inactive).

Q: And the GI50 [9]?
A: Its GI50 is 18.7 µM (inactive).

Q: And the GI50 [10]?
A: Its GI50 is 27.2 µM (inactive).

Q: What about the GI50 [11] of the same compound?
A: The GI50 was 16.7 µM (inactive).

Q: And the GI50 [12]?
A: Its GI50 is 18.4 µM (inactive).

Q: What about the GI50 [13] of the same compound?
A: The GI50 was 19.8 µM (inactive).

Q: And the GI50 [14]?
A: The GI50 was 26.2 µM (inactive).

Q: What about the GI50 [15] of the same compound?
A: Its GI50 is 19.5 µM (inactive).

Q: And the GI50 [16]?
A: The GI50 was 29 µM (inactive).

Q: What about the GI50 [17] of the same compound?
A: Its GI50 is 26.2 µM (inactive).

Q: And the GI50 [18]?
A: The GI50 was 18.7 µM (inactive).

Q: And the GI50 [19]?
A: The GI50 was 17.6 µM (inactive).

Q: And the GI50 [20]?
A: Its GI50 is 18.2 µM (inactive).
